What all share (assay type): functional, cell-based
Data set [1] deals with T1, Multidrug resistance-associated protein 1 (Homo sapiens, UniProt P33527). The experiment in a line: TP_TRANSPORTER: inhibition of Calcein efflux (Calcein: 0.05 micro;M, Zidovudine: 0.02 uM) in UMCC-1/VP cells.
For data set [2], the target named is T1, Multidrug resistance-associated protein 1. The experiment in a line: TP_TRANSPORTER: inhibition of Calcein efflux (Calcein: 0.05 micro;M, Amprenavir: 0.02 uM) in UMCC-1/VP cells.
The target is the same in data set [3]. Kind of data set: TP_TRANSPORTER: inhibition of Calcein efflux (Calcein: 0.05 micro;M, Lamivudine: 0.55 uM) in UMCC-1/VP cells.
Data set [4] shares this target. Kind of data set: TP_TRANSPORTER: inhibition of Calcein efflux (Calcein: 0.05 micro;M, Indinavir: 0.114 uM) in UMCC-1/VP cells.

Consider four compounds from ChEMBL document CHEMBL2074025 (AIDS, 2002).

T1 sequence (P33527 whole entry): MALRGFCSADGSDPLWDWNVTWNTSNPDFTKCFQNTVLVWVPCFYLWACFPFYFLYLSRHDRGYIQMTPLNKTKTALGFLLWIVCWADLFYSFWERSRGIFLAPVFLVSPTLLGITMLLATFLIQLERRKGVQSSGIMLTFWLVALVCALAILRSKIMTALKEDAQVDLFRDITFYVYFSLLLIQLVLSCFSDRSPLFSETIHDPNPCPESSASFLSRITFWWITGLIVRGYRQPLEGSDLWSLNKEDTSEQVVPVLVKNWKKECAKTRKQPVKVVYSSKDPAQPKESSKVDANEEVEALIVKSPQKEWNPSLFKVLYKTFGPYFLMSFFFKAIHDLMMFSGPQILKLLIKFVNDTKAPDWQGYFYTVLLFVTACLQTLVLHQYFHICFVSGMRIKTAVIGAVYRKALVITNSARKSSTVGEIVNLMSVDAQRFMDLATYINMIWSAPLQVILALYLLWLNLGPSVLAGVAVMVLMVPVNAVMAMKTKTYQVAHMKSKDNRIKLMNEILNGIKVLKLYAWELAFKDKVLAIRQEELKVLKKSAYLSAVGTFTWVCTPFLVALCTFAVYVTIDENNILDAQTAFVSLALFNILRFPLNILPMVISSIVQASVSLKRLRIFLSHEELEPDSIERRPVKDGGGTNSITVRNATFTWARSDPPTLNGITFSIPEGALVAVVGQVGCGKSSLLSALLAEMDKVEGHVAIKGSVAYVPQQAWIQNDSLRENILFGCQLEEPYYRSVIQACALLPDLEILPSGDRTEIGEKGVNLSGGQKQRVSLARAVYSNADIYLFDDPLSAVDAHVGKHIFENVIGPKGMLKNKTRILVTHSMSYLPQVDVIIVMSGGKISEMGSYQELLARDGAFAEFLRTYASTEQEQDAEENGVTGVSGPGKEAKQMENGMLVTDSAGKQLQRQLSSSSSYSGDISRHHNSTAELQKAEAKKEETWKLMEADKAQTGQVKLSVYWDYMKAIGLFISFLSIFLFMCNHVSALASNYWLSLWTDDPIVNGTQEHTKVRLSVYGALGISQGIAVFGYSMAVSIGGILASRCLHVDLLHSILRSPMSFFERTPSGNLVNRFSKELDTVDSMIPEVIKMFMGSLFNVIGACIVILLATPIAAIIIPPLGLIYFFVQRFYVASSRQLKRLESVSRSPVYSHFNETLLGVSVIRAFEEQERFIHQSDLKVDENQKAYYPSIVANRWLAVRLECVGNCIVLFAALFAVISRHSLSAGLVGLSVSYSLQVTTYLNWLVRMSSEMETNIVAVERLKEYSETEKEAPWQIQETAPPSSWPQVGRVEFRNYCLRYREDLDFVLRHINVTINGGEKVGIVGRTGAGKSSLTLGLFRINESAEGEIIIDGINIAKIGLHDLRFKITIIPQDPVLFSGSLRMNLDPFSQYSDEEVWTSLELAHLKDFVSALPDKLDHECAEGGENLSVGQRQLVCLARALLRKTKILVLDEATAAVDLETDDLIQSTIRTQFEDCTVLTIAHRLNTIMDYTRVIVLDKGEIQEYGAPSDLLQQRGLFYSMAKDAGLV

As for `Cc1cn([C@H]2C[C@H](N=[N+]=[N-])[C@@H](CO)O2)c(=O)[nH]c1=O` [ZIDOVUDINE], the Activity entry in data set [1] is “is not an inhibitor [-]”.

Regarding `CC(C)CN(C[C@@H](O)[C@H](Cc1ccccc1)NC(=O)O[C@H]1CCOC1)S(=O)(=O)c1ccc(N)cc1`, in data set [2], the Activity entry was “is not an inhibitor [-]”. Turning to `Nc1ccn([C@@H]2CS[C@H](CO)O2)c(=O)n1` [LAMIVUDINE], in data set [3], the Activity entry was “is not an inhibitor [-]”. For the compound `CC(C)(C)NC(=O)[C@@H]1CN(Cc2cccnc2)CCN1C[C@@H](O)C[C@@H](Cc1ccccc1)C(=O)N[C@H]1c2ccccc2C[C@H]1O.O`, the Activity result in data set [4] is “is not an inhibitor [-]”.
